Test results reported in PMC7815315, “Atomic structures of respiratory complex III2, complex IV, and supercomplex III2-IV from vascular plants” (eLife, 2021).

Target: T1, VrCIII2 (complex III dimer, cytochrome bc1 complex); cytochrome b (COB) sites (Vigna radiata, UniProt E9KZM1)
T1 construct: native obligate dimer, 10 subunits per monomer, from mitochondria of etiolated hypocotyls; digitonin-extracted, amphipol A8-35; RNA-edited COB; partially purified (sucrose gradient); with Cytochrome c1, heme protein, mitochondrial; Cytochrome b-c1 complex subunit Rieske, mitochondrial; Mitochondrial-processing peptidase subunit alpha; Mitochondrial-processing peptidase subunit beta; Cytochrome b-c1 complex subunit 6; Cytochrome b-c1 complex subunit 7; Cytochrome b-c1 complex subunit 8; Cytochrome b-c1 complex subunit 9; Cytochrome b-c1 complex subunit 10
Assay: spectroscopic cytochrome c reduction at […] nm, pooled gradient fractions
Type: biochemical
Settings: 100 uM reduced decylubiquinone, 100 uM equine cyt c, pH 7.8, room temperature

Structure (SMILES): CCCCCCCCCCc1c(C)c(O)c(OC)c(OC)c1O [reduced decylubiquinone]
- spectroscopic cytochrome c reduction at 550 nm, pooled gradient fractions: CIII2 respiratory activity (electron transfer from reduced decylubiquinone to cytochrome c)
